The results in this text go back to patent US5272144A, “Aryloxy-, arylthio-, heteroaryloxy-, heteroarylthio-alkenylene derivatives of amines and pharmaceutical use” (Farmitalia Carlo Erba s.r.l., priority 1988, dated 1993).

Each structure is given as a SMILES string.

Assay [1] relates to reserpine-induced blepharospasm. As to the kind of experiment: prevention of reserpine-induced blepharospasm in mice (antidepressant activity). The note with it: Mus musculus, po, 1 h, per os, 30 min before reserpine 2.4 mg/kg endoperitoneally, blepharospasm scored one hour after reserpine, read-out: BLEPH/ED50 (blepharospasm). Format: in vivo. Here is the method: (§1) The antidepressant activity was evaluated for example in mice on the basis of the prevention of reserpine-induced blepharospasm and hypothermia.

In assay [2] the test system is reserpine-induced hypothermia. As to the kind of experiment: prevention of reserpine-induced hypothermia in mice (antidepressant activity). Conditions: Mus musculus, po, 4 h, per os, 30 min before reserpine 2.4 mg/kg endoperitoneally, rectal temperature four hours after reserpine, read-out: HYPOTH/ED50 (hypothermia). Format: in vivo. Here is the method: as §1

With `CNC/C=C(\Oc1ccc(Cl)c(Cl)c1)c1ccccc1` [3-Cl 4-Cl H H H CH3 Z, α-(3,4-dichlorophenoxy)-α-phenyl-β-methylaminomethyl-ethylene], the ED50 in assay [1] stood at 1.2 mg/kg; in assay [2], 1.3 mg/kg.
In the same order, the values of `CNC/C=C(/Oc1ccccc1Cl)c1ccccc1` [H 2-Cl H H H CH3 E, α-(2-chlorophenoxy)-α-phenyl-β-methylaminomethyl-ethylene] are 1.1 mg/kg and 1.2 mg/kg.
The matching figures for `CNC/C=C(\Oc1ccccc1Cl)c1ccccc1` [H 2-Cl H H H CH3 Z, α-(2-chlorophenoxy)-α-phenyl-β-methylaminomethyl-ethylene]: 0.7 mg/kg and 0.2 mg/kg.
On to `CNC/C=C(/Oc1ccccc1)c1ccc2c(c1)OCO2` [H H 3,4-OCH2 O H CH3 E, α-phenoxy-α-(3,4-methylenedioxyphenyl)-β-methylaminomethyl-ethylene], for which the ED50 in assay [1] was 1 mg/kg; in assay [2], 1.4 mg/kg.
The matching figures for `CNC/C=C(\Oc1ccccc1)c1ccc2c(c1)OCO2` [H H 3,4-OCH2 O H CH3 Z, α-phenoxy-α-(3,4-methylenedioxyphenyl)-β-methylaminomethyl-ethylene]: 2.2 mg/kg and 2.4 mg/kg.
With `CN(C)C/C=C(\Oc1ccccc1)c1ccccc1` [H H H H CH3 CH3 Z, (Z)α-phenoxy-α-phenyl-β-dimethylaminomethyl-ethylene], the ED50 was found to be 0.5 mg/kg in assay [1] and 1.4 mg/kg in assay [2].
As to `CNC/C=C(\Oc1ccccc1)c1ccccc1` [H H H H H CH3 Z, (Z)α-phenoxy-α-phenyl-β-methylaminomethyl-ethylene], the ED50 in assay [1] and in assay [2] was 0.8 mg/kg in each case.
Consider `CN(C)CCCN1c2ccccc2CCc2ccccc21` [IMIPRAMINE, reference compound], for which the figures for the ED50 in assay [1] and in assay [2] were 24.1 mg/kg and 10.2 mg/kg, respectively.
